Legend:
Assay type in all cases: in vivo
[1] = system: sedge, umbrella (small-flower umbrella sedge, Cyperus difformis); assay: Test B flooded paddy test; settings: Cyperus difformis, Flood, 250 g ai/ha; scale of 0 to 100 where 0 is no effect and 100 is complete control; read-out: Sedge, Umbrella plant response rating
In short: (§1)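 Percent control, visually estimated after 13–15 d in the greenhouse on a 0–100 basis, compares treated pots with untreated ones; compound was put into paddy water 3 cm above the soil when plants had two leaves.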

[2] = system: barnyardgrass (Echinochloa crus-galli); assay: Test B flooded paddy test; settings: Echinochloa crus-galli, Flood, 250 g ai/ha; scale of 0 to 100 where 0 is no effect and 100 is complete control; read-out: Barnyardgrass plant response rating
In short: as §1

rice (Oryra sativa) = assay: Test B flooded paddy test; settings: Oryza sativa, Flood, 250 g ai/ha; scale of 0 to 100 where 0 is no effect and 100 is complete control; read-out: Rice plant response rating
In short: as §1

[3] = system: ducksalad (Heteranthera limosa); assay: Test B flooded paddy test; settings: Heteranthera limosa, Flood, 250 g ai/ha; scale of 0 to 100 where 0 is no effect and 100 is complete control; read-out: Ducksalad plant response rating
In short: as §1

[4] = system: ragweed (common ragweed, Ambrosia elatior); assay: Test A preemergence; settings: Ambrosia artemisiifolia, pre-emergence, 240 h; for pest or weed control at 125 g/ha: 125 g ai/ha, preemergence, 0 to 100 scale where 0 is no effect and 100 is complete control, read-out: Ragweed plant response rating; for pest or weed control at 500 g/ha: 500 g ai/ha, Preemergence, visual injury vs untreated controls after approximately 10 d, read-out: Ragweed plant response rating (0 to 100 scale where 0 is no effect and 100 is complete control)
In short: (§2)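 Each rating is a visual injury score from 0 to 100 given about 10 d after treatment, judged against untreated controls kept alongside in the greenhouse. In loam soil–sand blend, seeds got a preemergence directed soil spray, while postemergence plants were 2 to 10 cm tall at spraying.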

[5] = system: giant foxtail (Setaria faberii); assay: Test A postemergence; settings: Setaria faberi, post-emergence, 240 h, 125 g ai/ha, postemergence, visual injury rating after approximately 10 d; read-out: Foxtail, Giant plant response rating (0 to 100 scale, 0 no effect, 100 complete control)
In short: as §2

[6] = system: pigweed (Amaranthus retroflexus); assay: Test A postemergence; settings: Amaranthus retroflexus, post-emergence, 240 h, 125 g ai/ha, postemergence, visual injury rating after approximately 10 d; read-out: Pigweed plant response rating (0 to 100 scale, 0 no effect, 100 complete control)
In short: as §2

[7] = system: ryegrass, Italian (Italian ryegrass, Lolium multiflorum); assay: Test A postemergence; settings: Lolium multiflorum, post-emergence, 240 h, 125 g ai/ha, postemergence, visual injury rating after approximately 10 d; read-out: Ryegrass, Italian plant response rating (0 to 100 scale, 0 no effect, 100 complete control)
In short: as §2

Kochia (Kochia scoparia) = assay: Test A postemergence; settings: Bassia scoparia, post-emergence, 240 h, 125 g ai/ha, postemergence, visual injury rating after approximately 10 d; read-out: Kochia plant response rating (0 to 100 scale, 0 no effect, 100 complete control)
In short: as §2

[8] = system: barnyardgrass (Echinochloa crus-galli); assay: Test A postemergence; settings: Echinochloa crus-galli, post-emergence, 240 h, 125 g ai/ha, postemergence, visual injury rating after approximately 10 d; read-out: Barnyardgrass plant response rating (0 to 100 scale, 0 no effect, 100 complete control)
In short: as §2

[9] = system: ragweed (common ragweed, Ambrosia elatior); assay: Test A postemergence; settings: Ambrosia artemisiifolia, post-emergence, 240 h, 125 g ai/ha, postemergence, visual injury rating after approximately 10 d; read-out: Ragweed plant response rating (0 to 100 scale, 0 no effect, 100 complete control)
In short: as §2

[10] = system: Galium (catchweed bedstraw, Galium aparine); assay: Test A postemergence; settings: Galium, post-emergence, 240 h, 125 g ai/ha, postemergence, visual injury rating after approximately 10 d; read-out: Galium plant response rating (0 to 100 scale, 0 no effect, 100 complete control)
In short: as §2

[11] = system: blackgrass (Alopecurus myosuroides); assay: Test A postemergence; settings: Alopecurus myosuroides, post-emergence, 240 h, 125 g ai/ha, postemergence, visual injury rating after approximately 10 d; read-out: Blackgrass plant response rating (0 to 100 scale, 0 no effect, 100 complete control)
In short: as §2

corn (Zea mays) = assay: Test A postemergence; settings: Zea mays, post-emergence, 240 h, 125 g ai/ha, postemergence, visual injury rating after approximately 10 d; read-out: Corn plant response rating (0 to 100 scale, 0 no effect, 100 complete control)
In short: as §2

[12] = system: wheat (Triticum aestivum); assay: Test A postemergence; settings: Triticum aestivum, post-emergence, 240 h, 125 g ai/ha, postemergence, visual injury rating after approximately 10 d; read-out: Wheat plant response rating (0 to 100 scale, 0 no effect, 100 complete control)
In short: as §2

| Compound | pest or weed control at 250 g/ha [1] [%] | pest or weed control at 250 g/ha [2] [%] | pest or weed control at 250 g/ha (rice (Oryra sativa)) [%] | pest or weed control at 250 g/ha [3] [%] | pest or weed control at 125 g/ha [4] [%] | pest or weed control at 500 g/ha [4] [%] | pest or weed control at 125 g/ha [5] [%] | pest or weed control at 125 g/ha [6] [%] | pest or weed control at 125 g/ha [7] [%] | pest or weed control at 125 g/ha (Kochia (Kochia scoparia)) [%] | pest or weed control at 125 g/ha [8] [%] | pest or weed control at 125 g/ha [9] [%] | pest or weed control at 125 g/ha [10] [%] | pest or weed control at 125 g/ha [11] [%] | plant injury at 125 g/ha (corn (Zea mays)) [%] | plant injury at 125 g/ha [12] [%] |
| --- | --- | --- | --- | --- | --- | --- | --- | --- | --- | --- | --- | --- | --- | --- | --- | --- |
| CN1C[C@H](c2cc(F)c(C(F)(F)F)c(F)c2)[C@@H](C(=O)Nc2ccc(F)cc2F)C1=O [Compound 901] | 0 | 60 | 0 | 60 | 0 | 0 | 90 | 0 | 0 | 30 | 60 | 0 | 0 | 20 | 40 | 20 |
| CCOc1ccc([C@H]2CN(C)C(=O)[C@@H]2C(=O)Nc2ccc(F)cc2F)cc1 [Compound 905] | 0 | 0 | 0 | 0 | 0 | 0 | 60 | 0 | 0 | 0 | 70 | 0 | 0 | 0 | 0 | 0 |
| CCOc1ccc([C@H]2CNC(=O)[C@@H]2C(=O)Nc2ccc(F)cc2F)cc1 [Compound 908] | 0 | 0 | 0 | 0 | 0 | 0 | 30 | 0 | 0 | 0 | 20 | 0 | 0 | 0 | 0 | 0 |

— US12077503B2, “Substituted cyclic amides and their use as herbicides” (FMC CORPORATION, priority 2015, dated 2024)
